The text below walks through data of US9963480B2, “Nucleoside phosphoramidate compound and use thereof” (priority 2013, dated 2018).

Where two headings read alike, the source gives them in different places.

For this assay, the system named is HCV 1b replicon. The experiment in a line: Antiviral activity assay in HCV replicon system (Huh7 1b cells, luciferase reporter). The assay is classed as cell-based. Conditions: Hepatitis C virus. An excerpt: The cell line Huh7 1b, which was provided by WuXi AppTec Co., Ltd. in Shanghai, contained an HCV 1b replicon with a stable Luciferase (Luc) reporter. It was constructed by cloning HCV nonstructural protein gene, neo (G418 resistance) and luciferase reporter gene into the pBR vector through gene recombination technology. Then the vector carrying the HCV replicon was transfected into Huh7 cells, and the transfected Huh7 cells were screened by G418 resistance. The HCV replicon was stably replicated, and the related protein and luciferase were stably expressed in Huh7 cells. The cells model was used for in-vitro screen of anti-HCV compounds. The anti-HCV activity of the compounds was measured by detecting the level of luciferase expression. See Lohmann V, et al. 1999. Replication of subgenomic hepatitis C virus RNAs in a hepatoma cell line. Science. 285(5424):110-113.
The control drug used in this experimental example was the compound of Example 25 in WO 2008/121634 (PCT/US2008/058183), i.e. (S)-2-{[(2R,3R,4R,5R)-5-(2,4-dioxo-3,4-dihydro-2H-pyrimidin-1-yl)-4-fluoro-3-hydr oxy-4-methyl-tetrahydro-furan-2-ylmethoxy]-phenoxy-phosphorylamino}-propanoic acid isopropyl ester. This compound was prepared according to the method described in J. Org. chem, 2011, 76, 8311-8319, and identified by H-NMR and mass spectrometry.
• 2.1 compound preparation: adding each of the compounds listed in Table 2 to 96-well plates using a POD™ 810 Automation Platform (LabCyte Corporation, USA), with 10 μM of each of the compounds as a starting concentration and in duplicate; serially diluting each of the compounds in 3-fold fashion and formulating 10 concentrations, with the final concentration of DMSO being 0.5%; • 2.2 cells preparation: seeding the Huh71b cells into 96-well plates respectively with a volume of 125 μl and 8×10^3 cells/well, and incubating in a 37° C., 5% CO2 incubator for 72 h; • 2.3 detection of cell activity: adding 30 μl per cell of the CellTiter-Fluor™ Reagent, incubating in a 37° C., 5% CO2 incubator for 1 h, measuring the fluorescence signal values with a fluorometer, and using the obtained data for calculation of cytotoxicities of the compounds; • 2.4 Bright-Glo detection: adding 100 μl per well of the Bright-Glo™ Luciferase Substrate, using a chemiluminescence detection system EnVision™ (PerkinElmer, USA) to detect the fluorescence signal values within 5 minutes, and using the obtained data for calculation of potencies of the compounds. • 2.5 data processing: converting the obtained data to a percentage of cell viability (Viability %) using the following formula:
[formula] • CPD: fluorescence signal value of the well added with the compound • ZPE (Zero percent effect): fluorescence signal value of the control well with zero percent effect. • Processing the raw data to calculate a percentage of inhibition (Inhibition %) using the following formula:
[formula] • CPD: fluorescence signal value of the well added with the compound; • HPE (Hundred percent effect): fluorescence signal value of the control well with hundred percent effect; • ZPE (Zero percent effect): fluorescence signal value of the control well with zero percent effect.
The inhibition percentage was processed by the GraphPad Prism software to obtain the corresponding curves and EC50 values.
On the technique in general: In antiviral work, replicon cells carry a viral genome segment that copies itself.

[1] abbreviates: Huh-7, Huh7 1b cells with HCV 1b replicon, Bright-Glo luciferase, 72 h, read-out: EC50.

For the compound `CC(C)OC(=O)[C@H](C)NP(=O)(OC[C@H]1O[C@@H](n2ccc(=O)[nH]c2=O)[C@](C)(F)[C@@H]1O)Oc1ccccc1-c1ccccc1` (stereo partly drawn) [Example 3, (2S)-2-((([1,1′-biphenyl]-2-yloxy)(((2R,3R,4R,5R)-5-(2,4-dioxo-3,4-dihydropyrimidin-1(2H)-yl)-4-fluoro-3-hydroxy-4-methyltetrahydrofuran-2-yl)methoxy)phosphoryl)amino)propanoic Acid Isopropyl Ester], the EC50 (as a rule, the concentration giving half of the maximal effect) under setting [1] turned out to be 123 nM.
On the same count and under the same terms, the figure for `CC(C)OC(=O)[C@H](C)NP(=O)(OC[C@H]1O[C@@H](n2ccc(=O)[nH]c2=O)[C@](C)(F)[C@@H]1O)Oc1ccc(/C=C/c2ccc(F)cc2)cc1` (stereo partly drawn) [Example 19, (2S)-2-(((4-((E)-4-fluorophenylethenylphenyl)-1-yloxy)(((2R,3R,4R,5R)-5-(2,4-dioxo-3,4-dihydropyrimidin-1(2H)-yl)-4-fluoro-3-hydroxy-4-methyltetrahydrofuran-2-yl)methoxy)phosphoryl)amino)propanoic Acid Isopropyl Ester] is 303 nM.
`CC(C)OC(=O)[C@H](C)NP(=O)(OC[C@H]1O[C@@H](n2ccc(=O)[nH]c2=O)[C@](C)(F)[C@@H]1O)Oc1ccc2[nH]ccc2c1` (stereo partly drawn) [Example 20, (2S)-2-(((1H-indol-5-yloxy)(((2R,3R,4R,5R)-5-(2,4-dioxo-3,4-dihydropyrimidin-1(2H)-yl)-4-fluoro-3-hydroxy-4-methyltetrahydrofuran-2-yl)methoxy)phosphoryl)amino)propanoic Acid Isopropyl Ester]: the EC50 (Huh-7, 72 h) is 3870 nM.
Take `Cc1ccc(-c2ccc(OP(=O)(N[C@@H](C)C(=O)OC(C)C)OC[C@H]3O[C@@H](n4ccc(=O)[nH]c4=O)[C@](C)(F)[C@@H]3O)cc2)cc1` (stereo partly drawn) [Example 42, (2S)-2-((((4′-methyl-[1,1′-biphenyl]-4-yl)oxy)(((2R,3R,4R,5R)-5-(2,4-dioxo-3,4-dihydropyrimidin-1(2H)-yl)-4-fluoro-3-hydroxy-4-methyltetrahydrofuran-2-yl)methoxy)phosphoryl)amino)propanoic Acid Isopropyl Ester]: under setting [1], the EC50 worked out at 126 nM.
Same read-out and setting: under `Cc1cc(-c2ccc(OP(=O)(N[C@@H](C)C(=O)OC(C)C)OC[C@H]3O[C@@H](n4ccc(=O)[nH]c4=O)[C@](C)(F)[C@@H]3O)cc2)ccc1F` (stereo partly drawn) [Example 41, (2S)-2-((((4′-fluoro-3′-methyl-[1,1′-biphenyl]-4-yl)oxy)(((2R,3R,4R,5R)-5-(2,4-dioxo-3,4-dihydropyrimidin-1(2H)-yl)-4-fluoro-3-hydroxy-4-methyltetrahydrofuran-2-yl)methoxy)phosphoryl)amino)propanoic Acid Isopropyl Ester] stands 50 nM; under `CC(C)OC(=O)[C@H](C)NP(=O)(OC[C@H]1O[C@@H](n2ccc(=O)[nH]c2=O)[C@](C)(F)[C@@H]1O)Oc1ccc(-c2ccc(Cl)cc2F)cc1` (stereo partly drawn) [Example 39], 61 nM; under `CC(C)OC(=O)[C@H](C)NP(=O)(OC[C@H]1O[C@@H](n2ccc(=O)[nH]c2=O)[C@](C)(F)[C@@H]1O)Oc1ccc(-c2cccc(F)c2)cc1` (stereo partly drawn) [Example 31, (2S)-2-((((3′-fluoro-[1,1′-biphenyl]-4-yl)oxy)(((2R,3R,4R,5R)-5-(2,4-dioxo-3,4-dihydropyrimidin-1(2H)-yl)-4-fluoro-3-hydroxy-4-methyltetrahydrofuran-2-yl)methoxy)phosphoryl)amino)propanoic Acid Isopropyl Ester], 102 nM.
Still for that read-out and setting: the figure for `CC(C)OC(=O)[C@H](C)NP(=O)(OC[C@H]1O[C@@H](n2ccc(=O)[nH]c2=O)[C@](C)(F)[C@@H]1O)Oc1ccc2oc(-c3ccccc3)cc(=O)c2c1` (stereo partly drawn) [Example 23] is 4490 nM.
Same read-out and setting: the figure for `CC(C)OC(=O)[C@H](C)NP(=O)(OC[C@H]1O[C@@H](n2ccc(=O)[nH]c2=O)[C@](C)(F)[C@@H]1O)Oc1ccc(-c2ccc(Cl)cc2)cc1` (stereo partly drawn) [Example 27, (2S)-2-((((4′-chloro-[1,1′-biphenyl]-4-yl)oxy)(((2R,3R,4R,5R)-5-(2,4-dioxo-3,4-dihydropyrimidin-1(2H)-yl)-4-fluoro-3-hydroxy-4-methyltetrahydrofuran-2-yl)methoxy)phosphoryl)amino)propanoic Acid Isopropyl Ester] is 98 nM; for `Cc1ccc(-c2ccc(OP(=O)(N[C@@H](C)C(=O)OC(C)C)OC[C@H]3O[C@@H](n4ccc(=O)[nH]c4=O)[C@](C)(F)[C@@H]3O)cc2)cc1F` (stereo partly drawn) [Example 40] it is 56 nM; for `COC(=O)CNP(=O)(OC[C@H]1O[C@@H](n2ccc(=O)[nH]c2=O)[C@](C)(F)[C@@H]1O)Oc1cccc2c1CCCC2` (stereo partly drawn) [Example 14, (2S)-2-(((5,6,7,8-tetrahydronaphthalen-1-yloxy)(((2R,3R,4R,5R)-5-(2,4-dioxo-3,4-dihydropyrimidin-1(2H)-yl)-4-fluoro-3-hydroxy-4-methyltetrahydrofuran-2-yl)methoxy)phosphoryl)amino)acetic Acid Methyl Ester] it is 223 nM.
With `Cc1cc2c(F)c(O[P@@](=O)(N[C@@H](C)C(=O)OC(C)C)OC[C@H]3O[C@@H](n4ccc(=O)[nH]c4=O)[C@](C)(F)[C@@H]3O)ccc2n1C` [Example 43, (2S)-2-(((R)-((4-fluoro-1,2-dimethyl-1H-indol-5-yl)oxy)(((2R,3R,4R,5R)-5-(2,4-dioxo-3,4-dihydropyrimidin-1(2H)-yl)-4-fluoro-3-hydroxy-4-methyltetrahydrofuran-2-yl)methoxy)phosphoryl)amino)propanoic Acid Isopropyl Ester], the EC50 under setting [1] came to 69 nM.
Still for that read-out and setting: under `COc1cc(/C=C/c2ccc(OP(=O)(N[C@@H](C)C(=O)OC(C)C)OC[C@H]3O[C@@H](n4ccc(=O)[nH]c4=O)[C@](C)(F)[C@@H]3O)cc2)cc(OC)c1` (stereo in doubt) [Example 8, (2S)-2-((((E)-4-(3,5-dimethoxyphenylethenyl)phen-1-yloxy)(((2R,3R,4R,5R)-5-(2,4-dioxo-3,4-dihydropyrimidin-1(2H)-yl)-4-fluoro-3-hydroxy-4-methyltetrahydrofuran-2-yl)methoxy)phosphoryl)amino)propanoic Acid Isopropyl Ester] stands 411 nM; under `COc1ccc(-c2ccc(OP(=O)(N[C@@H](C)C(=O)OC(C)C)OC[C@H]3O[C@@H](n4ccc(=O)[nH]c4=O)[C@](C)(F)[C@@H]3O)cc2)cc1` (stereo partly drawn) [Example 36], 73 nM; under `CC(C)OC(=O)[C@H](C)NP(=O)(OC[C@H]1O[C@@H](n2ccc(=O)[nH]c2=O)[C@](C)(F)[C@@H]1O)Oc1ccc(C#Cc2ccccc2)cc1` (stereo partly drawn) [Example 11], 189 nM.
The same measure, in the same setting: the figure for `Cc1cc2c(F)c(OP(=O)(N[C@@H](C)C(=O)OC(C)C)OC[C@H]3O[C@@H](n4ccc(=O)[nH]c4=O)[C@](C)(F)[C@@H]3O)ccc2[nH]1` (stereo partly drawn) [Example 21, (2S)-2-(((4-fluoro-2-methyl-1H-indol-5-yloxy)(((2R,3R,4R,5R)-5-(2,4-dioxo-3,4-dihydropyrimidin-1(2H)-yl)-4-fluoro-3-hydroxy-4-methyltetrahydrofuran-2-yl)methoxy)phosphoryl)amino)propanoic Acid Isopropyl Ester] is 258 nM; for `C[C@H](NP(=O)(OC[C@H]1O[C@@H](n2ccc(=O)[nH]c2=O)[C@](C)(F)[C@@H]1O)Oc1cccc2c1CCCC2)C(=O)OC(C)(C)C` (stereo partly drawn) [Example 15, (2S)-2-(((5,6,7,8-tetrahydronaphthalen-1-yloxy)(((2R,3R,4R,5R)-5-(2,4-dioxo-3,4-dihydropyrimidin-1(2H)-yl)-4-fluoro-3-hydroxy-4-methyltetrahydrofuran-2-yl)methoxy)phosphoryl)amino)propanoic Acid t-butyl Ester] it is above 3330 nM.
The same measure, in the same setting: under `COC(=O)Cc1coc2c(OP(=O)(N[C@@H](C)C(=O)OC(C)C)OC[C@H]3O[C@@H](n4ccc(=O)[nH]c4=O)[C@](C)(F)[C@@H]3O)cccc12` (stereo partly drawn) [Example 22, (2S)-2-(((3-methoxycarbonylmethyl-benzofuran-7-yloxy)(((2R,3R,4R,5R)-5-(2,4-dioxo-3,4-dihydropyrimidin-1(2H)-yl)-4-fluoro-3-hydroxy-4-methyltetrahydrofuran-2-yl)methoxy)phosphoryl)amino)propanoic Acid Isopropyl Ester] stands 314 nM.
